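Exposure lasted 48 hours, with cells grown in 96-well plates and compounds tested at five concentrations. Abbreviation: GI50, concentration required for 50% inhibition of growth. TGI marks complete inhibition of growth.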
How the values were obtained:
Experiment in all cases: inhibition of tumour cell growth, NCI panel, 48 h
RPMI-8226 leukemia = test system: RPMI-8226 leukemia
HCT-15 colon = test system: HCT-15 colon
SK-MEL-5 melanoma = test system: SK-MEL-5 melanoma
OVCAR-3 ovarian = test system: OVCAR-3 ovarian
MOLT-4 leukemia = test system: MOLT-4 leukemia
SK-MEL-28 melanoma = test system: SK-MEL-28 melanoma
HL-60(TB) leukemia = test system: HL-60(TB) leukemia
HCT-116 colon = test system: HCT-116 colon
SR leukemia = test system: SR leukemia
ACHN renal = test system: ACHN renal
OVCAR-5 ovarian = test system: OVCAR-5 ovarian
SNB-19 CNS = test system: SNB-19 CNS
OVCAR-4 ovarian = test system: OVCAR-4 ovarian
T-47D breast = test system: T-47D breast
NCI-H460 lung = test system: NCI-H460 lung
COLO 205 colon = test system: COLO 205 colon
HT29 colon = test system: HT29 colon
DU-145 prostate = test system: DU-145 prostate
BT-549 breast = test system: BT-549 breast
HCC-2998 colon = test system: HCC-2998 colon
CAKI-1 renal = test system: CAKI-1 renal
EKVX NSCLC = test system: EKVX NSCLC
SNB-75 CNS = test system: SNB-75 CNS
NCI/ADR-RES ovarian = test system: NCI/ADR-RES ovarian
CCRF-CEM leukemia = test system: CCRF-CEM leukemia
K-562 leukemia = test system: K-562 leukemia
SF-539 CNS = test system: SF-539 CNS
NCI-H522 lung = test system: NCI-H522 lung
HS 578T breast = test system: HS 578T breast
MALME-3M melanoma = test system: MALME-3M melanoma
786-0 renal = test system: 786-0 renal
HOP-62 NSCLC = test system: HOP-62 NSCLC
UO-31 renal = test system: UO-31 renal
SK-OV-3 ovarian = test system: SK-OV-3 ovarian
MDA-MB-231 breast = test system: MDA-MB-231 breast
LOX IMVI melanoma = test system: LOX IMVI melanoma
SF-268 CNS = test system: SF-268 CNS
MCF7 breast = test system: MCF7 breast
SK-MEL-2 melanoma = test system: SK-MEL-2 melanoma
SW-620 colon = test system: SW-620 colon
KM12 colon = test system: KM12 colon
UACC-257 melanoma = test system: UACC-257 melanoma
A498 renal = test system: A498 renal
A549 NSCLC = test system: A549 NSCLC
M14 melanoma = test system: M14 melanoma
NCI-H23 lung = test system: NCI-H23 lung
SF-295 CNS = test system: SF-295 CNS
MDA-MB-435 = test system: MDA-MB-435
IGROV1 ovarian = test system: IGROV1 ovarian
U251 CNS = test system: U251 CNS
RXF 393 renal = test system: RXF 393 renal
TK-10 renal = test system: TK-10 renal
OVCAR-8 ovarian = test system: OVCAR-8 ovarian
HOP-92 NSCLC = test system: HOP-92 NSCLC
UACC-62 melanoma = test system: UACC-62 melanoma
PC-3 prostate = test system: PC-3 prostate
NCI-H226 lung = test system: NCI-H226 lung
SN12C renal = test system: SN12C renal

Compound `COc1cc(OC)cc(C(=O)Nc2cccc(C#Cc3cccc4[nH]nc(N)c34)c2)c1` has a GI50 (RPMI-8226 leukemia) of 1770 nM, a TGI (RPMI-8226 leukemia) of 17.8 µM and a GI50 (HCT-15 colon) of 492 nM. The TGI (HCT-15 colon) was 12.5 µM, the GI50 (SK-MEL-5 melanoma) was 1010 nM and the TGI (SK-MEL-5 melanoma) was 3.29 µM. For the same compound, the GI50 (OVCAR-3 ovarian) was 943 nM, the TGI (OVCAR-3 ovarian) was 11.8 µM and the GI50 (MOLT-4 leukemia) was 931 nM. It also gave a TGI (MOLT-4 leukemia) of 17.8 µM, a GI50 (SK-MEL-28 melanoma) of 1760 nM and a TGI (SK-MEL-28 melanoma) of 15.7 µM. It also gave a GI50 (HL-60(TB) leukemia) of 441 nM, a TGI (HL-60(TB) leukemia) of 2510 nM and a GI50 (HCT-116 colon) of 548 nM. The TGI (HCT-116 colon) was 10.7 µM, the GI50 (SR leukemia) was 133 nM and the TGI (SR leukemia) was 5.48 µM. The GI50 (ACHN renal) was 2640 nM, the TGI (ACHN renal) was 14.7 µM and the GI50 (OVCAR-5 ovarian) was 2970 nM. For the same compound, the TGI (OVCAR-5 ovarian) was 45.5 µM, the GI50 (SNB-19 CNS) was 2460 nM and the TGI (SNB-19 CNS) was 30.9 µM. The GI50 (OVCAR-4 ovarian) was 3.51 µM, the TGI (OVCAR-4 ovarian) was 23.6 µM and the GI50 (T-47D breast) was 1210 nM. The TGI (T-47D breast) was 13.8 µM, the GI50 (NCI-H460 lung) was 586 nM and the TGI (NCI-H460 lung) was 10.8 µM. The GI50 (COLO 205 colon) was 1160 nM, the TGI (COLO 205 colon) was 3.63 µM and the GI50 (HT29 colon) was 641 nM. It also gave a TGI (HT29 colon) of 5.37 µM, a GI50 (DU-145 prostate) of 2930 nM and a TGI (DU-145 prostate) of over 39 µM. It also gave a GI50 (BT-549 breast) of 1320 nM, a TGI (BT-549 breast) of 6.32 µM and a GI50 (HCC-2998 colon) of 1980 nM. The TGI (HCC-2998 colon) was 4.92 µM, the GI50 (CAKI-1 renal) was 1640 nM and the TGI (CAKI-1 renal) was 7.18 µM. For the same compound, the GI50 (EKVX NSCLC) was 2920 nM, the TGI (EKVX NSCLC) was over 38.2 µM and the GI50 (SNB-75 CNS) was 306 nM. It also gave a TGI (SNB-75 CNS) of 2710 nM, a GI50 (NCI/ADR-RES ovarian) of 1660 nM and a TGI (NCI/ADR-RES ovarian) of 8.54 µM. For the same compound, the GI50 (CCRF-CEM leukemia) was 808 nM, the TGI (CCRF-CEM leukemia) was over 56 µM and the GI50 (K-562 leukemia) was 331 nM. For the same compound, the TGI (K-562 leukemia) was over 100 µM, the GI50 (SF-539 CNS) was 621 nM and the TGI (SF-539 CNS) was 2190 nM. It also gave a GI50 (NCI-H522 lung) of 485 nM, a TGI (NCI-H522 lung) of 2700 nM and a GI50 (HS 578T breast) of 1250 nM. It also gave a TGI (HS 578T breast) of 5.43 µM, a GI50 (MALME-3M melanoma) of 782 nM and a TGI (MALME-3M melanoma) of 13.1 µM. It also gave a GI50 (786-0 renal) of 2240 nM, a TGI (786-0 renal) of 11.3 µM and a GI50 (HOP-62 NSCLC) of 1710 nM. It also gave a TGI (HOP-62 NSCLC) of 22.5 µM, a GI50 (UO-31 renal) of 2990 nM and a TGI (UO-31 renal) of 12.1 µM. It also gave a GI50 (SK-OV-3 ovarian) of 3.68 µM, a TGI (SK-OV-3 ovarian) of 22.6 µM and a GI50 (MDA-MB-231 breast) of 1280 nM. For the same compound, the TGI (MDA-MB-231 breast) was 5.14 µM, the GI50 (LOX IMVI melanoma) was 759 nM and the TGI (LOX IMVI melanoma) was 7.18 µM. For the same compound, the GI50 (SF-268 CNS) was 2060 nM, the TGI (SF-268 CNS) was 11 µM and the GI50 (MCF7 breast) was 469 nM. For the same compound, the TGI (MCF7 breast) was 12.3 µM, the GI50 (SK-MEL-2 melanoma) was 428 nM and the TGI (SK-MEL-2 melanoma) was 1960 nM. For the same compound, the GI50 (SW-620 colon) was 689 nM, the TGI (SW-620 colon) was over 35 µM and the GI50 (KM12 colon) was 957 nM. It also gave a TGI (KM12 colon) of 10.4 µM, a GI50 (UACC-257 melanoma) of 2040 nM and a TGI (UACC-257 melanoma) of 11.8 µM. For the same compound, the GI50 (A498 renal) was 4.5 µM, the TGI (A498 renal) was 11.1 µM and the GI50 (A549 NSCLC) was 1430 nM. For the same compound, the TGI (A549 NSCLC) was 18.3 µM, the GI50 (M14 melanoma) was 535 nM and the TGI (M14 melanoma) was 4.55 µM. It also gave a GI50 (NCI-H23 lung) of 2140 nM, a TGI (NCI-H23 lung) of 11.7 µM and a GI50 (SF-295 CNS) of 1130 nM. It also gave a TGI (SF-295 CNS) of 5.17 µM, a GI50 (MDA-MB-435) of 201 nM and a TGI (MDA-MB-435) of 490 nM. For the same compound, the GI50 (IGROV1 ovarian) was 1130 nM, the TGI (IGROV1 ovarian) was 11.1 µM and the GI50 (U251 CNS) was 821 nM. It also gave a TGI (U251 CNS) of 15 µM, a GI50 (RXF 393 renal) of 584 nM and a TGI (RXF 393 renal) of 3.03 µM. For the same compound, the GI50 (TK-10 renal) was 4.29 µM, the TGI (TK-10 renal) was 12.4 µM and the GI50 (OVCAR-8 ovarian) was 2360 nM. The TGI (OVCAR-8 ovarian) was 13.7 µM, the GI50 (HOP-92 NSCLC) was 2300 nM and the TGI (HOP-92 NSCLC) was 11.7 µM. It also gave a GI50 (UACC-62 melanoma) of 478 nM, a TGI (UACC-62 melanoma) of 6.49 µM and a GI50 (PC-3 prostate) of 2050 nM. For the same compound, the TGI (PC-3 prostate) was over 41.2 µM, the GI50 (NCI-H226 lung) was 1930 nM and the TGI (NCI-H226 lung) was 9.03 µM. For the same compound, the GI50 (SN12C renal) was 2700 nM and the TGI (SN12C renal) was 13.9 µM.
